Legend:
serine hydrolases = experiment: Comparative and competitive gel ABPP selectivity in mouse brain membrane proteome (TAMRA-FP and MB064); type: biochemical; settings: 1 µM; including ABHD6 and ABHD12
Description: (§1) For gel based ABPP experiments mouse brain proteome (2.0 mg/mL, 20 µL) was preincubated for 30 min with vehicle (DMSO) or compound to be tested in 0.5 µL DMSO at rt. And subsequently treated with 500 nM (final concentration) TAMRA-FP (TAMRA-FP was bought at Thermo Fischer) for 15 minutes at rt. The reactions were quenched with 10 µL standard 3 x SDS page sample buffer. The samples were directly loaded and resolved on SDS page gel (10 % acrylamide). The gels were scanned with a ChemiDoc MP sytem (Biorad, Cy 3 settings, 605/50 filter) and analyzed using Image Lab 4.1.
To investigate the selectivity of compound 25 in the mouse brain proteome comparative and competitive ABPP was used with a broad-spectrum FP-based probe (TAMRA-FP) and the tailored DAGL-α ABP MB064. As a reference the widely used β-lactone-based DAGL-inhibitors THL and OMDM-188, two broad-spectrum covalent and irreversible serine hydrolase inhibitors, were firstly tested.

FAAH = biological target: T1, FAAH (Mus musculus, UniProt O08914); experiment: Gel based competitive ABPP selectivity assay with TAMRA-FP in mouse brain proteome (FAAH band); type: biochemical; settings: 10 µM inhibitor; TAMRA-FP 500 nM; mouse brain proteome; vehicle set to 100%
T1 construct: For gel based ABPP experiments mouse brain proteome (2.0 mg/mL, 20 µL) was preincubated; from tissue; host or cells: mouse brain proteome
T1 sequence (O08914 1-579): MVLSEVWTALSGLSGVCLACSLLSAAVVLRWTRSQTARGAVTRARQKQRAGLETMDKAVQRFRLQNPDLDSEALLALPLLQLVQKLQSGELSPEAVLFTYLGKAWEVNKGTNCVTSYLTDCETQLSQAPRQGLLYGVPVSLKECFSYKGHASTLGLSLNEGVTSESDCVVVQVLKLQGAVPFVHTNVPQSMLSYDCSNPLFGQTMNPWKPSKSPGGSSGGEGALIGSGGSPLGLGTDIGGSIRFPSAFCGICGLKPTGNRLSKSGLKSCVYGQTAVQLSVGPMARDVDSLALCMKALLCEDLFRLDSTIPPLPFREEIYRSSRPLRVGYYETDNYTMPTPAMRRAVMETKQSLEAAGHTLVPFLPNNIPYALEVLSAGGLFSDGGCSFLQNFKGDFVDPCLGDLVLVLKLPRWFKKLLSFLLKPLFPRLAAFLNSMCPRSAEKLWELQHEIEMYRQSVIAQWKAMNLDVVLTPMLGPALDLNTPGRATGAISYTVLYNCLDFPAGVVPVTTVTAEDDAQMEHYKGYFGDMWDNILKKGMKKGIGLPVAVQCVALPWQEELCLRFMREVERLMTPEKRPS
Description: as §1
The percentage effect on FAAH was determined by measuring the integrated optical intensity of the band corresponding to FAAH (∼ 63 kD for mouse) using Image lab software. This activity was corrected for the total protein loading per lane as determined by coomassie staining and imaging with a ChemiDoc™ MP sytem (Biorad) followed by determination of the integrated optical intensity per lane by using Image Lab 4.1 software. The intensity of the protein bands from the samples treated with vehicle was set to 100%. […] N/A means less than 50% probe displacement at 10 µM inhibitor concentration.

hDAGL-α [1] = biological target: T2, hDAGL-α (Homo sapiens, UniProt Q9Y4D2); experiment: Biochemical hDAGL-α activity assay (PNP-butyrate hydrolysis, 96 well plate); set-up: expressed in transfected cells; host or cells: HEK293T (transient), membrane fraction; settings: PNP-butyrate 0.3 mM, membranes of HEK293T cells transfected with hDAGL-α; for IC50: read-out: DAGL-α Activity assay pIC50 (converted)
T2 sequence (Q9Y4D2 1-1042): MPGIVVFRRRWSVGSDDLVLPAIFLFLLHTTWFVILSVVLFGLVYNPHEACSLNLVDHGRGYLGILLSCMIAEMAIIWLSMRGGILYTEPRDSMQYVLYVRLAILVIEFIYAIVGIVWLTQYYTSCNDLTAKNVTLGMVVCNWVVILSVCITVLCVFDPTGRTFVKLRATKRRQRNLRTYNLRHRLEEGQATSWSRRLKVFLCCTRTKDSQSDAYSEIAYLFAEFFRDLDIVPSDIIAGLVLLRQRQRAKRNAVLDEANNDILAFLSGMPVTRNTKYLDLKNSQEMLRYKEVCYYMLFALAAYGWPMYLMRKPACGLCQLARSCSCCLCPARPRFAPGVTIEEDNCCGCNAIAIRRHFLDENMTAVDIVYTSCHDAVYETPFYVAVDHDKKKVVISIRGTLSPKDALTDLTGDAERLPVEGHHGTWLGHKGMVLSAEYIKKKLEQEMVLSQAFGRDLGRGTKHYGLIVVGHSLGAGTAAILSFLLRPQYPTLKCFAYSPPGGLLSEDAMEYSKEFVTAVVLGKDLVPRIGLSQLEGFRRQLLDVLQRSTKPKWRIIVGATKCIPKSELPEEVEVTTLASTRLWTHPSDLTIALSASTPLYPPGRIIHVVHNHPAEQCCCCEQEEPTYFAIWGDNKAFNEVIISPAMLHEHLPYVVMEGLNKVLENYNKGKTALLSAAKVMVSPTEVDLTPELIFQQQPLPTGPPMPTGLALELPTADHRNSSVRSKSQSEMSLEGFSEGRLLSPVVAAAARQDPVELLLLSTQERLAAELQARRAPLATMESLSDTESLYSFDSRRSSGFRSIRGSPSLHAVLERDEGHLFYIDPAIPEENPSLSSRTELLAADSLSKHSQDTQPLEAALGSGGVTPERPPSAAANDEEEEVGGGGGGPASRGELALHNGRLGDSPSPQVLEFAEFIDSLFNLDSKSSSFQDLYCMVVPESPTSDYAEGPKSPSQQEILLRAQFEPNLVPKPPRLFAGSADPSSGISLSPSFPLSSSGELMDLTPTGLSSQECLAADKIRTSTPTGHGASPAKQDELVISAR
Description: The biochemical hDAGL-α activity assay is based on the hydrolysis of para-nitrophenylbutyrate (PNP-butyrate) by membrane preparations from HEK293T cells transiently transfected with hDAGL-α. 200 µL reactions were performed in flat bottom Greiner 96-wells plates in a 50 mM pH 7.2 Hepes buffer. Membrane protein fractions from HEK293T cells transiently transfected with hDAGL-α (0.05 µg/µL final concentration) were used as hDAGL-α source. Compounds to be tested were introduced in 5 µL DMSO. The mixtures were incubated for 30 minutes before 5.0 µL 12 mM PNP-butyrate (final concentration 0.3 mM) in DMSO was added (final DMSO concentration 5.0%). Kinetics were followed immediately after addition of PNP-butyrate on a plate reader (TECAN GENios® microplate reader), by measuring the OD420 every 60 seconds, for 20 minutes at 37°C. The slope of the linear region from 5-15 minutes was determined, and all experiments were performed at N = 2, n = 2 for experimental measurements and N = 2, n = 4 for controls.
Data analysis: Z'-factor of each plate was determined for the validation of each experiment, using the following formula Z' = 1-3(σpc + σnc)/(µpc - µnc). The slope from 5-15 minutes of the positive control (pc: hDAGL-α, DMSO), and the negative control (nc: Mock, DMSO) was used. Plates were accepted for further analysis when Z' > 0.6. Kinetic measurements were corrected for the average absorption of the negative control (mock, DMSO). The slope of the linear region from 5-15 minutes was determined. The average, standard deviation (SD) and standard error of mean (SEM) were calculated and normalized to the corrected positive control. Data was exported to Graphpad Prism 5.0 for the calculation of the pIC50 using a nonlinear dose-response analysis.

hDAGL-α [2] = biological target: T2, hDAGL-α; experiment: Mode of action (reversibility) experiment: size exclusion chromatography, then MB064 labeling; type: biochemical; set-up: expressed in transfected cells; settings: pre-incubation at IC80 concentration; remaining activity visualized with MB064; n=3
Description: To determine the mode of action (reversible versus irreversible) of the inventive compounds, an experiment in which human DAGL-α membranes were pre-incubated at the IC80 concentration of compound 25 or the irreversible DAGL inhibitor KT-109 was performed.

Row | IC50 (hDAGL-α [1]) | Molecule | FAAH ABPP (10 µm) % Eff. (FAAH) | further results
1 |  | CCCCCCCCCCC[C@@H](C[C@@H]1OC(=O)[C@H]1CCCCCC)OC(=O)[C@H](CC(C)C)NC=O [THL, Tetrahydrolipstatin, reference compound] |  | number of serine hydrolases whose labeling is blocked (serine hydrolases): at least 4
2 |  | CCCCCCCCCCC[C@@H](C[C@@H]1OC(=O)[C@H]1CCCCCC)OC(=O)[C@@H](NC=O)[C@@H](C)CC [OMDM-188, reference compound] |  | number of serine hydrolases whose labeling is blocked (serine hydrolases): at least 4
3 | 8.32 nM | Cc1ccc(-c2cnc3nc(C(=O)CCc4ccccc4Oc4ccccc4)oc3c2)cc1 [Compound 26, 3-(2-phenoxyphenyl)-1-(6-(p-tolyl)oxazolo[4,5-b]pyridin-2-yl)propan-1-one] | N/A (N/A means less than 50% probe displacement at 10 µM inhibitor concentration) | 
4 | 1.32 nM | Cc1ccccc1-c1cc(F)c2nc(C(=O)CCCCCc3ccccc3)oc2c1 [Compound 33, 1-(4-fluoro-6-(o-tolyl)benzo[d]oxazol-2-yl)-6-phenylhexan-1-one] | N/A (N/A means less than 50% probe displacement at 10 µM inhibitor concentration) | 
5 | 5.01 nM | O=C(CCCCCc1ccccc1)c1nc2c(F)cc(-c3ccc(F)cc3)cc2o1 [Compound 30, 1-(4-fluoro-6-(4-fluorophenyl)benzo[d]oxazol-2-yl)-6-phenylhexan-1-one] | N/A (N/A means less than 50% probe displacement at 10 µM inhibitor concentration) | 
6 | 5.13 nM | Cc1ccc(-c2cnc3nc(C(=O)CCc4ccc(Oc5ccccc5)cc4)oc3c2)cc1 [Compound 28, 3-(4-phenoxyphenyl)-1-(6-(p-tolyl)oxazolo[4,5-b]pyridin-2-yl)propan-1-one] | N/A (N/A means less than 50% probe displacement at 10 µM inhibitor concentration) | 
7 |  | 1-(4-fluoro-6-(2-fluorophenyl)benzo[d]oxazol-2-yl)-6-phenylhexan-1-one [Compound 31] | N/A (N/A means less than 50% probe displacement at 10 µM inhibitor concentration) | DAGL-α Activity assay pIC50 (hDAGL-α [1]): 8.6
8 | 3.72 nM | Cc1ccc(-c2cnc3nc(C(=O)CCc4cccc(Oc5ccccc5)c4)oc3c2)cc1 [Compound 27, 3-(3-Phenoxyphenyl)-1-(6-(p-tolyl)oxazolo[4,5-b]pyridin-2-yl)propan-1-one] | N/A (N/A means less than 50% probe displacement at 10 µM inhibitor concentration) | 
9 | 0.851 nM | Cc1ccc(-c2cnc3nc(C(=O)CCc4ccc(Oc5ccc(C(F)(F)F)cn5)cc4)oc3c2)cc1 [Compound 29, 1-(6-(p-Tolyl)oxazolo[4,5-b]pyridin-2-yl)-3-(4-((5-(trifluoromethyl)pyridin-2-yl)oxy)phenyl)propan-1-one] | N/A (N/A means less than 50% probe displacement at 10 µM inhibitor concentration) | 
10 |  | O=C(N1CCCCC1Cc1ccccc1)n1cc(-c2ccc(-c3ccccc3)cc2)nn1 (stereo not shown) [KT-109, reference compound] |  | recovery of DAGL-α activity after size exclusion chromatography (hDAGL-α [2]): No recovery of DAGL-α activity
11 | 1.41 nM | Cc1ccc(-c2cc(F)c3nc(C(=O)CCCCCc4ccccc4)oc3c2)cc1 [Compound 32, 1-(4-fluoro-6-(p-tolyl)benzo[d]oxazol-2-yl)-6-phenylhexan-1-one] | N/A (N/A means less than 50% probe displacement at 10 µM inhibitor concentration) | 
